According to US6423714B1, “Cyclohexene derivatives useful as antagonists of the motilin receptor” (Ortho McNeil-Pharmaceutical, Inc.., priority 2000, dated 2002):

Target: T1, motilin receptors located on the colon of mature rabbits (Oryctolagus cuniculus, UniProt G1T803)
T1 construct: The muscle tissues were homogenized in 10 volumes of buffer; from tissue; host or cells: rabbit colon smooth muscle, crude membrane homogenate
Experiment: Competition with radiolabeled (I125) porcine motilin for motilin receptors in rabbit colon membranes
Type: binding
Conditions: @ 50 nM; I125 motilin (porcine) 25-40 pM; rabbit colon smooth muscle membranes; 30 min at 30° C.
Method: The compounds of the invention were tested for their ability to compete with radiolabeled motilin (porcine) for the motilin receptors located on the colon of mature rabbits. The colon from mature New Zealand rabbits was removed, dissected free from the mucosa and serosa layers, and diced into small pieces. The muscle tissues were homogenized in 10 volumes of buffer (50 mM Tris-Cl, 10 mM MgCl2, 0.1 mg/mL bactracin, and 0.25 mM Peflabloc, pH 7.5) in a Polytron (29,000 rpm, 4×15 seconds). The homogenate was centrifuged at 1000×g for 15 min. and the supernatant discarded. The pellet was washed twice before being suspended in homogenizing buffer. This crude homogenate was then passed first through a 19 gauge needle then a 23 gauge needle to further suspend the material and stored at −80° C. […] The pellet was counted in the gamma counter to determine the percentage of […] motilin and thereby the percent inhibition of the test compound.
% inhibition was determined for some compounds by standard techniques: […]

T1 sequence (G1T803 1-400): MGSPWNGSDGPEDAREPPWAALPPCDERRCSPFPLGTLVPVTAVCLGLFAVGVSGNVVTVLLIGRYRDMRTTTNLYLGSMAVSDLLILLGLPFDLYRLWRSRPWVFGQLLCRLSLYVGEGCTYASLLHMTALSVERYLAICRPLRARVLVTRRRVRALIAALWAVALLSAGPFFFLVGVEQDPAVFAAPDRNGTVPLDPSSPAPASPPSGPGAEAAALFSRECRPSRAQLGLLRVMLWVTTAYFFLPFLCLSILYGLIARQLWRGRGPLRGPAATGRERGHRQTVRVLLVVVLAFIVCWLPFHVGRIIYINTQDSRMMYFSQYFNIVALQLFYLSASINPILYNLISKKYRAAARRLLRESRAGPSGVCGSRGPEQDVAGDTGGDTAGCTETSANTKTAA

Molecule | % inhibition [%]
3-Benzyl-3-trichloroacetamido-1-N[(3-(2-morpholinoethoxy)phenyl)amino]methylcyclohexene [Example 7] | 59
O=C(Nc1ccccc1)N(CC1=CC(Cc2ccccc2)(NC(=O)C(Cl)(Cl)Cl)CCC1)c1cccc(OCCN2CCOCC2)c1 (centres unmarked) [Example 6, 3-Benzyl-3-trichloroacetamido-1-(N-phenylaminocarbonyl)-N-[(3-(2-morpholinoethoxy)phenyl)amino]methylcyclohexene] | 62
